Assay results as given in patent US8598339B2, “Withanolide isolated from Physalis longifolia and analogs and methods of use thereof” (University of Kansas, priority 2011, dated 2013).

How the values were obtained:
[1] = tested on: Hsp70 and Hsp40 in Hs766T cells; experiment: Heat shock-induced Hsp70 and Hsp40 protein levels, Hs766T; type: cell-based; conditions: pretreatment 8 hours; 30-minute heat shock at 42° C.; further 8 hours
Description: For this analysis, Hs766T cells were incubated with X003 for 8 hours, followed by a 30-minute heat shock at 42° C. The cells were further incubated for 8 hours and Hsp70 and Hsp40 levels were determined.

[2] = tested on: BT20 cells; experiment: Cell cycle analysis, BT20; type: cell-based; conditions: 2 μM; 24-hour treatment
[3] = tested on: Ames test strain TA98; experiment: Ames test, TA98
[4] = tested on: Salmonella typhimurium TA100; experiment: Cytotoxicity in tester strain TA100 without S9; type: cell-based
[5] = tested on: MDA-MB-231 cells; experiment: Annexin V-FITC/Propidium Iodide apoptosis, MDA-MB-231; type: cell-based
Source text: Therefore, this cell line was not very sensitive to X001 in this assay.

[6] = tested on: Salmonella typhimurium TA1535; experiment: Cytotoxicity in tester strain TA1535 without S9; type: cell-based
[7] = tested on: MDA-MB-231; experiment: MTS assay, MDA-MB-231; type: cell-based
Description: (§1) Cell proliferation was analyzed using MTS assay.

[8] = In vitro metabolism, dog liver microsomes; type: in vitro ADME, dog (Beagle); conditions: 1.0E-06 M
Description: The in vitro metabolism of […], as compared to known reference compounds, was analyzed using liver microsomes from human, dog (Beagle), rat (Sprague-Dawley) and mouse (CD-1). […] Results are from two independent tests.

[9] = tested on: Salmonella typhimurium TA98; experiment: Cytotoxicity in tester strain TA98 without S9; type: cell-based
[10] = tested on: RET, mTOR, 4E-BP1, P70S6 kinase, akt, pERK in medullary thyroid cancer cells; experiment: Mechanistic pathway protein levels in medullary thyroid cancer cells; type: cell-based; conditions: 24 hours; 0.5, 1, 3, and 6 μM
Description: Additional analysis of X005, X032 and X033 was carried out in medullary thyroid cancer cells. […] Therefore, this analysis indicates the importance of this double bond in the A-ring to anti-cancer activity.

[11] = tested on: MCF-7; experiment: MTS assay, MCF-7; type: cell-based
Description: as §1

## CC(=O)OCC1=C(C)C[C@H]([C@@H](C)C2CC[C@H]3[C@@H]4C[C@H]5O[C@]56[C@@H](OC(C)=O)C=CC(=O)[C@]6(COC(C)=O)[C@H]4CC[C@]23C)OC1=O (stereo partly shown) [Compound X003, 4,19,27-triacetyl X001]
[1]
  heat shock-induced Hsp70 and Hsp40 protein levels: failed to block

## CC1=C(CO)C(=O)O[C@@H]([C@@H](C)C2CC[C@H]3[C@@H]4C[C@H]5O[C@]56[C@@H](O)C=CC(=O)[C@]6(CO)[C@H]4CC[C@]23C)C1 (stereo partly shown) [Compound X001]
[2]
  cell cycle effect: G2/M arrest
[3]; 1.0E−04 M, TA98 +S9
  Positive Significance (− to +++): −
[3]; 1.0E−04 M, TA98 −S9
  Positive Significance (− to +++): −
[3]; 1.0E−05 M, TA98 +S9
  Positive Significance (− to +++): −
[3]; 1.0E−05 M, TA98 −S9
  Positive Significance (− to +++): −
[3]; 5.0E−05 M, TA98 +S9
  Positive Significance (− to +++): −
[3]; 5.0E−05 M, TA98 −S9
  Positive Significance (− to +++): −
[3]; 5.0E−06 M, TA98 +S9
  Positive Significance (− to +++): −
[3]; 5.0E−06 M, TA98 −S9
  Positive Significance (− to +++): −
[4]; 1.0E−04 M
  Cytotoxicity (% of Control): 107 % of Control
[4]; 1.0E−05 M
  Cytotoxicity (% of Control): 101 % of Control
[4]; 1.3E−06 M
  Cytotoxicity (% of Control): 96 % of Control
[4]; 2.5E−05 M
  Cytotoxicity (% of Control): 93 % of Control
[4]; 2.5E−06 M
  Cytotoxicity (% of Control): 101 % of Control
[4]; 5.0E−05 M
  Cytotoxicity (% of Control): 101 % of Control
[4]; 5.0E−06 M
  Cytotoxicity (% of Control): 103 % of Control
[4]; 6.3E−07 M
  Cytotoxicity (% of Control): 99 % of Control
[5]
  concentration needed to induce apoptosis: at least 4 μM
[6]; 1.0E−04 M
  Cytotoxicity (% of Control): 111 % of Control
[6]; 1.0E−05 M
  Cytotoxicity (% of Control): 97 % of Control
[6]; 1.3E−06 M
  Cytotoxicity (% of Control): 99 % of Control
[6]; 2.5E−05 M
  Cytotoxicity (% of Control): 100 % of Control
[6]; 2.5E−06 M
  Cytotoxicity (% of Control): 97 % of Control
[6]; 5.0E−05 M
  Cytotoxicity (% of Control): 109 % of Control
[6]; 5.0E−06 M
  Cytotoxicity (% of Control): 98 % of Control
[6]; 6.3E−07 M
  Cytotoxicity (% of Control): 99 % of Control
[7]
  Log ECF: 1.25
[8]
  Mean % Parent Compound Remaining: 28%
[9]; 1.0E−04 M
  Cytotoxicity (% of Control): 98 % of Control
[9]; 1.0E−05 M
  Cytotoxicity (% of Control): 86 % of Control
[9]; 1.3E−06 M
  Cytotoxicity (% of Control): 89 % of Control
[9]; 2.5E−05 M
  Cytotoxicity (% of Control): 86 % of Control
[9]; 2.5E−06 M
  Cytotoxicity (% of Control): 87 % of Control
[9]; 5.0E−05 M
  Cytotoxicity (% of Control): 85 % of Control
[9]; 5.0E−06 M
  Cytotoxicity (% of Control): 86 % of Control
[9]; 6.3E−07 M
  Cytotoxicity (% of Control): 95 % of Control
[10]
  pERK levels: increased at higher concentrations
  total and phosphorylated protein levels of RET, mTOR, P706S kinase: down-regulated in a dose-dependent manner
[11]
  Log ECF: 1.88
